These results are taken from article PMC7486443, “Generation of Phenothiazine with Potent Anti-TLK1 Activity for Prostate Cancer Therapy” (iScience, 2020).

SMILES strings stand for the structures.

Some targets named below: ALK(C1156Y) (Homo sapiens, UniProt Q9UM73, C1156Y); KIT(D816V) (Homo sapiens, UniProt P10721, D816V); ITK (Homo sapiens, UniProt Q08881); EPHB2 (Homo sapiens, UniProt P29323); AKT2 (Homo sapiens, UniProt P31751); SRC (Homo sapiens, UniProt P12931); PRKCQ (Homo sapiens, UniProt Q04759); PIK3CA(E545K) (Homo sapiens, UniProt P42336, E545K); CSNK1D (Homo sapiens, UniProt P48730); MAK (Homo sapiens, UniProt P20794); ULK1 (Homo sapiens, UniProt O75385); HIPK1 (Homo sapiens, UniProt Q86Z02).

Holding throughout (test): biochemical
Common to all, as to parameters: DiscoverX KINOMEscan scanMAX competition binding panel, single concentration, percent of control; remaining binding: dose or concentration left out as unconfirmed
What all share (settings): KINOMEscan binding, percent of control; read-out: Table S4_SCANMAX REPORT - related to Fig. 1 / Percent Control

Experiment [1] addresses T1, ABL1(Q252H)-phosphorylated (Homo sapiens, UniProt P00519, Q252H).
T1 construct: phosphorylated

For a further experiment, the target named is T2, RIPK5 (Homo sapiens, UniProt Q6XUX3).
T2 construct: gene DSTYK

A further experiment concerns the target T3, PRKR (Homo sapiens, UniProt P19525).
T3 construct: gene EIF2AK2

In experiment [2] the target is T4, RPS6KA5(Kin.Dom.2-C-terminal) (Homo sapiens, UniProt O75582).
T4 construct: Kin.Dom.2-C-terminal
T4 sequence (O75582 whole entry): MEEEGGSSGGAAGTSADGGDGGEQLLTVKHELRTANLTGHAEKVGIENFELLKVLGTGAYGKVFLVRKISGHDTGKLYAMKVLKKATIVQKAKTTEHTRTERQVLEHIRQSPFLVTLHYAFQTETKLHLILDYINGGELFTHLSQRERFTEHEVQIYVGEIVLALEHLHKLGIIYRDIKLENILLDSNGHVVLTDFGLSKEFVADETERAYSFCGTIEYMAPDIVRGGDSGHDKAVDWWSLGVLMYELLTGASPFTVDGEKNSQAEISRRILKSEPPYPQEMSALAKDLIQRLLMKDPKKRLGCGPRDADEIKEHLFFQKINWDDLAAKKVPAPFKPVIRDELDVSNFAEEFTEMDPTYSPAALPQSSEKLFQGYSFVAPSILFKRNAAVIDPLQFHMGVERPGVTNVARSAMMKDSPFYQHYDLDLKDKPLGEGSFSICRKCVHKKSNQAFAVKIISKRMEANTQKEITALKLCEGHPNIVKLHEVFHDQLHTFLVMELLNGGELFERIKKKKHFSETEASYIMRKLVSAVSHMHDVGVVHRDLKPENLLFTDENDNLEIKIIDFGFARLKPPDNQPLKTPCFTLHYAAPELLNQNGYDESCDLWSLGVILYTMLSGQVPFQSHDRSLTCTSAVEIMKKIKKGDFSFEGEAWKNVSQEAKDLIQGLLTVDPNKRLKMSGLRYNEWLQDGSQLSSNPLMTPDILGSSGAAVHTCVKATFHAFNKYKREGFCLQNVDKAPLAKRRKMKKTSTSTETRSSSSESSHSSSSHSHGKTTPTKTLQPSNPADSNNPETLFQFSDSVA

The target in a further experiment is T5, CDC2L2 (Homo sapiens, UniProt Q9UQ88).
T5 construct: gene CDK11A

The target of experiment [3] is T6, RSK2(Kin.Dom.2-C-terminal) (Homo sapiens, UniProt P51812).
T6 construct: gene RPS6KA3; Kin.Dom.2-C-terminal

PIK3CA(E545K), sequence (P42336 whole entry E545K): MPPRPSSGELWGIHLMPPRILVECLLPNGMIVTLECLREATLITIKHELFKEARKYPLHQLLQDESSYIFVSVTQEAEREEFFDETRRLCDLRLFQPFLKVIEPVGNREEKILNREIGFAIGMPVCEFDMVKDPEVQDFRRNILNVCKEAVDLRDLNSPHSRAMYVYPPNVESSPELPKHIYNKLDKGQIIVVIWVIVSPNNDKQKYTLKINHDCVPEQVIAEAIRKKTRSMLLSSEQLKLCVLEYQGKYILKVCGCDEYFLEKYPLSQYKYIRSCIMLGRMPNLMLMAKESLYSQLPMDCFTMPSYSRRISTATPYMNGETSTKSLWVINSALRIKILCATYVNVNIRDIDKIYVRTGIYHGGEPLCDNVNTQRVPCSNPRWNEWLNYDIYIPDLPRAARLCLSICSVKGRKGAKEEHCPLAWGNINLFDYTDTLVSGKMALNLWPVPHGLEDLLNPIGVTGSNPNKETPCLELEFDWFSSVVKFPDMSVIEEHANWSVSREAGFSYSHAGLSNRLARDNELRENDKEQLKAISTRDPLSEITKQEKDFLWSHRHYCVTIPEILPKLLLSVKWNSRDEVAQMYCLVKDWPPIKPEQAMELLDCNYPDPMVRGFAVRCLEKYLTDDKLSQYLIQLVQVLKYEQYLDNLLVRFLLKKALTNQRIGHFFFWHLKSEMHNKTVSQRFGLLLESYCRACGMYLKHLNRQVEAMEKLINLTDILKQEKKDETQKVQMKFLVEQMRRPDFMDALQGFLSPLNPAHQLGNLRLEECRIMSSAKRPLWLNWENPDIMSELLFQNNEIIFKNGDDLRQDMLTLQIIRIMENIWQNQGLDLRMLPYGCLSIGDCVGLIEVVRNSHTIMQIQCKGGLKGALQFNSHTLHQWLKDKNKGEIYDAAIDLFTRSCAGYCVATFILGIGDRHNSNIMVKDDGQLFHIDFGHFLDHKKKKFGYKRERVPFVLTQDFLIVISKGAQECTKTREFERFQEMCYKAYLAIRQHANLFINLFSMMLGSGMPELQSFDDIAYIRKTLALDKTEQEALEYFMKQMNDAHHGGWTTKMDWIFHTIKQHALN
ITK, sequence (Q08881 whole entry): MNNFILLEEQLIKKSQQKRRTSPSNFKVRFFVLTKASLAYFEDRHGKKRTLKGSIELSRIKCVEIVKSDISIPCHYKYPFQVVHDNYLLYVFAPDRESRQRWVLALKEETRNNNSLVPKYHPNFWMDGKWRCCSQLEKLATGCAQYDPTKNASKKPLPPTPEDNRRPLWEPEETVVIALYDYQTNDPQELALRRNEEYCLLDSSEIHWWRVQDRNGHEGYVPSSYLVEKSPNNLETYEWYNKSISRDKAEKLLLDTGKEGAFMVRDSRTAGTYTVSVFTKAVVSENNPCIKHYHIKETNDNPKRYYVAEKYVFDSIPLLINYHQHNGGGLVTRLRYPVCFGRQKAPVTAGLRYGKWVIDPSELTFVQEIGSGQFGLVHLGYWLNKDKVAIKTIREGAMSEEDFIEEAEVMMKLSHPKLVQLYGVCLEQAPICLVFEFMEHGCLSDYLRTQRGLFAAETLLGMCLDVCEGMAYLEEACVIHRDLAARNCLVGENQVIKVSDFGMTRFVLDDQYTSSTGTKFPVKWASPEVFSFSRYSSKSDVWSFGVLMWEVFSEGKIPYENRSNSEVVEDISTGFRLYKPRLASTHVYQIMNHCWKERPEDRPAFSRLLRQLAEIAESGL
EPHB2, sequence (P29323 whole entry): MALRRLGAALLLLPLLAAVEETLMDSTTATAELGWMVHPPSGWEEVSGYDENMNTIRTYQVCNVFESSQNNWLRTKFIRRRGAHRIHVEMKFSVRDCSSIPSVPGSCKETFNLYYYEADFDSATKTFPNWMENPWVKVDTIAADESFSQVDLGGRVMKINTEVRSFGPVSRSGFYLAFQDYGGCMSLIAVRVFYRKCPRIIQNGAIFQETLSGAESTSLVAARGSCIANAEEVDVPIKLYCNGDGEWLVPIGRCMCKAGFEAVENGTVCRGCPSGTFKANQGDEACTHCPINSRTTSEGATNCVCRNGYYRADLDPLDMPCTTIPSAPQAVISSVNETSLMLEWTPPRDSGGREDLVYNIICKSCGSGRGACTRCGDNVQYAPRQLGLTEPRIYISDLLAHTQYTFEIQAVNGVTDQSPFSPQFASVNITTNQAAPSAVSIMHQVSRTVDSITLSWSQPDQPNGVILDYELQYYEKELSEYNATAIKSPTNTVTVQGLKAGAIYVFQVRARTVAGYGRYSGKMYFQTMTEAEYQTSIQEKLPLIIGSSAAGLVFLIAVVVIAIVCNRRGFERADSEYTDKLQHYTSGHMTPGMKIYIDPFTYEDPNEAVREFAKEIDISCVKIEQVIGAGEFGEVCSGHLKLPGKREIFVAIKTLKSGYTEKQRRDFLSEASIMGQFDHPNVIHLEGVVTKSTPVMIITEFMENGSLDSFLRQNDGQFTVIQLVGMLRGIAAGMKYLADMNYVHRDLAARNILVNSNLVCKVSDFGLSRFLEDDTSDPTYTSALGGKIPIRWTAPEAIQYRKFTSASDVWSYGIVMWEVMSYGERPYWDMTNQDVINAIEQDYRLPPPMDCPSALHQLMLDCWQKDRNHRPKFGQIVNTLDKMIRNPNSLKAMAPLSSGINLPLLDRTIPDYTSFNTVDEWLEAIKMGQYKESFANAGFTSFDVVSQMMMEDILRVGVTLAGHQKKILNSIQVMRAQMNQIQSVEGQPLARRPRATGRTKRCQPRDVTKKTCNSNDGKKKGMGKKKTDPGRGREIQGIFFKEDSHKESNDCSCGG
PRKCQ, sequence (Q04759 whole entry): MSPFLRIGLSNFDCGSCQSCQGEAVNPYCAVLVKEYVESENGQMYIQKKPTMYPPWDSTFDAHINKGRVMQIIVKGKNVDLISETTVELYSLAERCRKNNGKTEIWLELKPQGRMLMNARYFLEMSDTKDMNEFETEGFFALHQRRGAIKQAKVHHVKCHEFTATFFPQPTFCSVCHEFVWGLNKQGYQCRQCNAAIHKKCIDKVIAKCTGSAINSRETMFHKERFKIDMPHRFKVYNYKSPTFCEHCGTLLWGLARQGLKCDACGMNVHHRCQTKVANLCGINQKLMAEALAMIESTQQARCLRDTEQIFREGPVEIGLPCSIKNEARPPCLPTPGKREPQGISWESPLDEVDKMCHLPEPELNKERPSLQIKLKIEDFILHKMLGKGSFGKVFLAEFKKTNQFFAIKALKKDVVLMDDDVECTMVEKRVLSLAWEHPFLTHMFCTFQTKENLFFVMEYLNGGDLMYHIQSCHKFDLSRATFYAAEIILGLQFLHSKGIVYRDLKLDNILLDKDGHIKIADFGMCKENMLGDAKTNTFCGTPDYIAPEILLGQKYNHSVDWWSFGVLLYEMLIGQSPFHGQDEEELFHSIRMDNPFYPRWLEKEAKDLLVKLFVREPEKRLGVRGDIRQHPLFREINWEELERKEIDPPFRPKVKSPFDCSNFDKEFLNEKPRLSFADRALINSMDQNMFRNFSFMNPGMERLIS
AKT2, sequence (P31751 whole entry): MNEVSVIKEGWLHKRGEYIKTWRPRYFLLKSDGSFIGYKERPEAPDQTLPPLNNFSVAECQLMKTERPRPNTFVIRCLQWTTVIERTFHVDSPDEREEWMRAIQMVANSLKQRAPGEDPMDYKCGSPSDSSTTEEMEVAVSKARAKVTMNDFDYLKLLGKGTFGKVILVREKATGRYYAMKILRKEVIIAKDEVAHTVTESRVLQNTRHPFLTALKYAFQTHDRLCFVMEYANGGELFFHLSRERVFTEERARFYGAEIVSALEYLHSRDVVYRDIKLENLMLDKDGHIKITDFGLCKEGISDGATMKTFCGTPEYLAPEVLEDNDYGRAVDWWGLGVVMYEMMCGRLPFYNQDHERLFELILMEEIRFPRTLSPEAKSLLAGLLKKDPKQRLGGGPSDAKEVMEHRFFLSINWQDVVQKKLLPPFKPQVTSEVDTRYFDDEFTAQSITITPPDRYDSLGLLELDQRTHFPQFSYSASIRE

For the molecule `c1ccc2c(c1)Sc1ccccc1N2CCN1CCOCC1` [J54], the remaining binding at ALK(C1156Y) worked out at 100%; in experiment [1], 90%; at KIT(D816V) it was 96%; at RIPK5, 100%; at ITK, 100%; at PRKR it was 93%. Besides, the remaining binding at EPHB2 came out at 100%; at AKT2, 100%; in experiment [2] it was 100%; on SRC, 96%; on PRKCQ, 96%; on PIK3CA(E545K) it was 100%. For the same molecule, the remaining binding at CSNK1D was determined as 95%; on MAK it was 31%; on CDC2L2, 100%; in experiment [3], 89%; at ULK1, 99%; at HIPK1 it was 85%.
